The source of these data is patent publication US9796711B2, “Substituted pyrazolo[3,4-b]pyridin-6-carboxylic acids and method of use” (AbbVie S.àr.l., priority 2015, dated 2017).

Test [1] deals with T1, ΔF508-CFTR (Homo sapiens, UniProt P13569, DEL508-508).
T1 construct: host or cells: CFBE41o-, doxycycline-inducible
Kind of test: CFTR cell surface levels using HRP-tagged ΔF508-CFTR expressing CFBE cells, in the presence of a co-corrector. Type of test: cell-based. In outline:
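Cells were seeded with 0.5 μg/mL doxycycline and held 68 h at 37 °C. Test compounds plus 3 μM co-corrector (final 0.1% DMSO) were then added for 20 h at 33 °C. Washed cells received HRP substrate, and luminescence was normalized between DMSO and 3 μM co-corrector controls.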

The target in test [2] is T1, ΔF508-CFTR. Kind of test: CFTR cell surface levels using HRP-tagged ΔF508-CFTR expressing CFBE cells, intrinsic corrector capacity. In kind it is cell-based. In outline: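 Here the cells express ΔF508-CFTR with horseradish peroxidase inserted in extracellular loop 4, so only rescued channel at the surface gives luminescent signal. Compounds act on their own, 20 h at the reduced temperature of 33 °C; values are percent activity relative to DMSO and a 3 μM corrector.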

The mark [3] stands for this setting: HRP-tagged ΔF508-CFTR expressing CFBE cells, in the presence of 3 μM co-corrector.
[4] abbreviates: HRP-tagged ΔF508-CFTR expressing CFBE cells, in the presence of 3 μM co-corrector, read-out: EC50.
The mark [5] stands for this setting: HRP-tagged ΔF508-CFTR expressing CFBE cells, intrinsic corrector capacity (no co-corrector), 33° C., 20 hours.
Setting [6] is: HRP-tagged ΔF508-CFTR expressing CFBE cells, intrinsic corrector capacity (no co-corrector), 33° C., 20 hours, read-out: EC50.
The mark [7] stands for this setting: HRP-tagged ΔF508-CFTR CFBE41o- cells, compounds alone (intrinsic corrector capacity), 20 hours at 33° C., positive control 3 μM corrector.
The mark [8] stands for this setting: HRP-tagged ΔF508-CFTR CFBE41o- cells, compounds alone (intrinsic corrector capacity), 20 hours at 33° C., read-out: EC50.

T1 sequence (P13569 with tags, fused parts or gaps DEL508-508): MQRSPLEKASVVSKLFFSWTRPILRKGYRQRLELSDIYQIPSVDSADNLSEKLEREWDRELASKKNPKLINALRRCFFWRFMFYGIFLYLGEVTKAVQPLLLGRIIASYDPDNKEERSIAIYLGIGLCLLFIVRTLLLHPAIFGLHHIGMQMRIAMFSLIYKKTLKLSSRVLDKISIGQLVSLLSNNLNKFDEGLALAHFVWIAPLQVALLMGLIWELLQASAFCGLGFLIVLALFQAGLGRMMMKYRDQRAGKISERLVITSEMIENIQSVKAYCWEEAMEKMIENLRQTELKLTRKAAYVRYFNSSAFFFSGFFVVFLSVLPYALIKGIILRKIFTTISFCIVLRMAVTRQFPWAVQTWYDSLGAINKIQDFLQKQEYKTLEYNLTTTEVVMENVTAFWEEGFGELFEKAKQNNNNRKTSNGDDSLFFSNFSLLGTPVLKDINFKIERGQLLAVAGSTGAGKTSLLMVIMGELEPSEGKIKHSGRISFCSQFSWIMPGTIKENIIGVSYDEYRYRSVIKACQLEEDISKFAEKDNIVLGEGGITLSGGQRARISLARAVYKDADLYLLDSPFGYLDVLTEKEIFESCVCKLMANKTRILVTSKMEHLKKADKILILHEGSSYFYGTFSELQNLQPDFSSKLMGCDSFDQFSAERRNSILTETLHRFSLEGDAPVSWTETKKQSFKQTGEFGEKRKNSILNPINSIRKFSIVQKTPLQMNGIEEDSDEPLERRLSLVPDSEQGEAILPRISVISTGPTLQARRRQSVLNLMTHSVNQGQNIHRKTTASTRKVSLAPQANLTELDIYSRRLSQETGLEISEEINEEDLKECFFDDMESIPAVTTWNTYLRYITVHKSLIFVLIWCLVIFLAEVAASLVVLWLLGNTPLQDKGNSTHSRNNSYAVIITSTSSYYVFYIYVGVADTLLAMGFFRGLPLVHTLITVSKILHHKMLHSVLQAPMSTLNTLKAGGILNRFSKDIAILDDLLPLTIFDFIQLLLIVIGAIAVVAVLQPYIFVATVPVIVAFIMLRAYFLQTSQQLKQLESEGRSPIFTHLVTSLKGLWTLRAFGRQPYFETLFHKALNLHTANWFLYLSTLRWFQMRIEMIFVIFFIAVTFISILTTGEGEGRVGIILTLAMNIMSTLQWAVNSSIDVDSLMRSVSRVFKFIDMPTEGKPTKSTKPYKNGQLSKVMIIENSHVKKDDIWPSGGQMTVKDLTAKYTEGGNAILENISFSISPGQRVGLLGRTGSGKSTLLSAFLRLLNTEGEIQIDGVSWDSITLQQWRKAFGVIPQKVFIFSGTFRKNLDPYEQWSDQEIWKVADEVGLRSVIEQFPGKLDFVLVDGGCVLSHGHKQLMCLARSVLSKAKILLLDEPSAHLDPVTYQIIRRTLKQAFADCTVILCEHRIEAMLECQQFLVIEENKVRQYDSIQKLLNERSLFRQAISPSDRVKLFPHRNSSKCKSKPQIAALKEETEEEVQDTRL

A word on the EC50: it is the concentration that produces a half-maximal response. For the molecule `O=C(O)c1cc(N2CCC(N3CCOCC3)CC2)c2c(C3CCC3)nn(-c3cccc(OC(F)F)c3)c2n1` [compound 910, 3-cyclobutyl-1-[3-(difluoromethoxy)phenyl]-4-[4-(morpholin-4-yl)piperidin-1-yl]-1H-pyrazolo[3,4-b]pyridine-6-carboxylic acid], the “% Activation” value on ΔF508-CFTR [1] (setting [3]) is 499.9%; at ΔF508-CFTR [2] (setting [5]) it was 286.2%. Further, the EC50 was determined as 79.1 nM on ΔF508-CFTR [1] (setting [4]) and 187 nM on ΔF508-CFTR [2] (setting [6]).

As for `CC(C)c1nn(-c2cccc(N3CCCC3)c2)c2nc(C(=O)O)cc(-c3ccc(N4CCC(C#N)CC4)nc3)c12` [compound 222, 4-[6-(4-cyanopiperidin-1-yl)pyridin-3-yl]-3-(propan-2-yl)-1-[3-(pyrrolidin-1-yl)phenyl]-1H-pyrazolo[3,4-b]pyridine-6-carboxylic acid], the “% Activation” value was determined as 612.47% at ΔF508-CFTR [1] (setting [3]) and 429.93% on ΔF508-CFTR [2] (setting [7]). In addition, the EC50 at ΔF508-CFTR [1] (setting [4]) is 268 nM; on ΔF508-CFTR [2] (setting [8]) it was 433 nM.

Regarding `COCCN1CCC2(CC1)CCN(c1cc(C(=O)O)nc3c1c(C1CCC1)nn3-c1ccc(F)cc1)CC2` [compound 897, 3-cyclobutyl-1-(4-fluorophenyl)-4-[9-(2-methoxyethyl)-3,9-diazaspiro[5.5]undecan-3-yl]-1H-pyrazolo[3,4-b]pyridine-6-carboxylic acid], the entries for the “% Activation” value on ΔF508-CFTR [1] (setting [3]) and on ΔF508-CFTR [2] (setting [5]) were 354.93% and 151.25%, respectively. The EC50 is 186 nM at ΔF508-CFTR [1] (setting [4]) and 348 nM at ΔF508-CFTR [2] (setting [6]).

For `O=C(O)c1cc(N2CCC(CCN3CCCC3)CC2)c2c(C3CCC3)nn(-c3ccccc3)c2n1` [compound 574, 3-cyclobutyl-1-phenyl-4-{4-[2-(pyrrolidin-1-yl)ethyl]piperidin-1-yl}-1H-pyrazolo[3,4-b]pyridine-6-carboxylic acid], the “% Activation” value at ΔF508-CFTR [1] (setting [3]) was determined as 469.5%; at ΔF508-CFTR [2] (setting [5]), 294%. Besides, the EC50 on ΔF508-CFTR [1] (setting [4]) came to 190 nM; on ΔF508-CFTR [2] (setting [6]) it was 479 nM.

As to `CC(C)N1CCC2(CCN(c3cc(C(=O)O)nc4c3c(C3CCC3)nn4-c3ccc(F)cc3)CC2)CC1` [compound 890, 3-cyclobutyl-1-(4-fluorophenyl)-4-[9-(propan-2-yl)-3,9-diazaspiro[5.5]undecan-3-yl]-1H-pyrazolo[3,4-b]pyridine-6-carboxylic acid], the “% Activation” value on ΔF508-CFTR [1] (setting [3]) came to 406.67%; on ΔF508-CFTR [2] (setting [5]), 179%. For the same molecule, the results for the EC50 at ΔF508-CFTR [1] (setting [4]) and at ΔF508-CFTR [2] (setting [6]) were 225 nM and 742 nM, respectively.

Take `O=C(O)c1cc(N2CCC(CCN3CCOCC3)CC2)c2c(C3CCC3)nn(-c3ccc(F)cc3)c2n1` [compound 810, 3-cyclobutyl-1-(4-fluorophenyl)-4-{4-[2-(morpholin-4-yl)ethyl]piperidin-1-yl}-1H-pyrazolo[3,4-b]pyridine-6-carboxylic acid]: the “% Activation” value on ΔF508-CFTR [1] (setting [3]) is reported as 468.7%; on ΔF508-CFTR [2] (setting [5]), 277.6%. The EC50 on ΔF508-CFTR [1] (setting [4]) was found to be 88.4 nM; on ΔF508-CFTR [2] (setting [6]), 204 nM.

Take `COC[C@H]1CCN(CC2CCN(c3cc(C(=O)O)nc4c3c(C3CCC3)nn4-c3ccccc3)CC2)C1` [compound 804, 3-cyclobutyl-4-(4-{[(3S)-3-(methoxymethyl)pyrrolidin-1-yl]methyl}piperidin-1-yl)-1-phenyl-1H-pyrazolo[3,4-b]pyridine-6-carboxylic acid]: the “% Activation” value at ΔF508-CFTR [1] (setting [3]) turned out to be 365%; at ΔF508-CFTR [2] (setting [5]) it was 191.15%. Further, the concentration giving a half-maximal response (EC50) on ΔF508-CFTR [1] (setting [4]) worked out at 231 nM; on ΔF508-CFTR [2] (setting [6]) it was 489 nM.

Consider `Cc1cccc(-n2nc(C(C)C)c3c(N4CCC(CO)CC4)cc(C(=O)O)nc32)c1` [compound 213, 4-[4-(hydroxymethyl)piperidin-1-yl]-1-(3-methylphenyl)-3-(propan-2-yl)-1H-pyrazolo[3,4-b]pyridine-6-carboxylic acid], for which the “% Activation” value at ΔF508-CFTR [1] (setting [3]) turned out to be 456.97%; on ΔF508-CFTR [2] (setting [7]) it was 247.33%. Further, the figures for the EC50 on ΔF508-CFTR [1] (setting [4]) and on ΔF508-CFTR [2] (setting [8]) were 382 nM and 679 nM, respectively.

In the case of `CC(C)c1nn(-c2ccc(F)cc2)c2nc(C(=O)O)cc(N3CCC(N4CCN(C5CC5)CC4)CC3)c12` [compound 754, 4-[4-(4-cyclopropylpiperazin-1-yl)piperidin-1-yl]-1-(4-fluorophenyl)-3-(propan-2-yl)-1H-pyrazolo[3,4-b]pyridine-6-carboxylic acid], the “% Activation” value is listed as 467.3% on ΔF508-CFTR [1] (setting [3]) and 254.1% on ΔF508-CFTR [2] (setting [5]). In addition, the values for the EC50 on ΔF508-CFTR [1] (setting [4]) and on ΔF508-CFTR [2] (setting [6]) were 153 nM and 385 nM, respectively.

Take `O=C(O)c1cc(N2CCC(N3CCC(O)CC3)CC2)c2c(C3CCC3)nn(-c3ccc(F)cc3)c2n1` [compound 898, 3-cyclobutyl-1-(4-fluorophenyl)-4-(4-hydroxy[1,4′-bipiperidin]-1′-yl)-1H-pyrazolo[3,4-b]pyridine-6-carboxylic acid]: the “% Activation” value on ΔF508-CFTR [1] (setting [3]) came to 393.6%; on ΔF508-CFTR [2] (setting [5]) it was 231.6%. Besides, the EC50 at ΔF508-CFTR [1] (setting [4]) was 3330 nM; on ΔF508-CFTR [2] (setting [6]) it was 3240 nM.

`COCCN1CCN(c2ccc(-c3cc(C(=O)O)nc4c3c(C3CCC3)nn4C3CCCCC3)cn2)CC1` [compound 878, 3-cyclobutyl-1-cyclohexyl-4-{6-[4-(2-methoxyethyl)piperazin-1-yl]pyridin-3-yl}-1H-pyrazolo[3,4-b]pyridine-6-carboxylic acid]: the “% Activation” value on ΔF508-CFTR [1] (setting [3]) stood at 391.3%; on ΔF508-CFTR [2] (setting [5]), 181.05%. Moreover, the EC50 on ΔF508-CFTR [1] (setting [4]) is 99.6 nM; at ΔF508-CFTR [2] (setting [6]), 221 nM.

Regarding `CCOC(=O)N1CCN(c2cc(C(=O)O)nc3c2c(C2CCC2)nn3-c2ccccc2)CC1` [compound 539, 3-cyclobutyl-4-[4-(ethoxycarbonyl)piperazin-1-yl]-1-phenyl-1H-pyrazolo[3,4-b]pyridine-6-carboxylic acid], the “% Activation” value at ΔF508-CFTR [1] (setting [3]) was found to be 564.8%; on ΔF508-CFTR [2] (setting [5]), 366.3%. Moreover, the EC50 at ΔF508-CFTR [1] (setting [4]) came to 198 nM; on ΔF508-CFTR [2] (setting [6]), 370 nM.

In the case of `COCC1CCN(c2cc(C(=O)O)nc3c2c(C(C)C)nn3-c2cccc(C)c2)CC1` [compound 227, 4-[4-(methoxymethyl)piperidin-1-yl]-1-(3-methylphenyl)-3-(propan-2-yl)-1H-pyrazolo[3,4-b]pyridine-6-carboxylic acid], the “% Activation” value was 452.6% at ΔF508-CFTR [1] (setting [3]) and 305.45% on ΔF508-CFTR [2] (setting [7]). In addition, the EC50 at ΔF508-CFTR [1] (setting [4]) stood at 340 nM; at ΔF508-CFTR [2] (setting [8]) it was 666 nM.

Regarding `O=C(O)c1cc(N2CCC(CCN3CCOCC3)CC2)c2c(C3CCC3)nn(-c3ccccc3)c2n1` [compound 575, 3-cyclobutyl-4-{4-[2-(morpholin-4-yl)ethyl]piperidin-1-yl}-1-phenyl-1H-pyrazolo[3,4-b]pyridine-6-carboxylic acid], the EC50 amounted to 209 nM at ΔF508-CFTR [1] and 512 nM at ΔF508-CFTR [2]. For the same molecule, the “% Activation” value on ΔF508-CFTR [1] (setting [3]) was determined as 431.9%; on ΔF508-CFTR [2] (setting [5]) it was 268.4%.
